Molecules are shown by their SMILES.

This is an account of results in PMC2996101 (Journal of natural products, 2009).

The subject of assay [1] is 12-hLO. As to conditions: data from literature ref 20; cited from earlier work.
In a further assay the test system is 15-hLO. The note with it: read-out: previous IC50 15-hLO; previous work without Triton X100 ref 9; cited from earlier work.
The target in assay [2] is T1, human 5-lipoxygenase (5-hLO) (Homo sapiens, UniProt P09917).
T1 sequence (P09917 1-674): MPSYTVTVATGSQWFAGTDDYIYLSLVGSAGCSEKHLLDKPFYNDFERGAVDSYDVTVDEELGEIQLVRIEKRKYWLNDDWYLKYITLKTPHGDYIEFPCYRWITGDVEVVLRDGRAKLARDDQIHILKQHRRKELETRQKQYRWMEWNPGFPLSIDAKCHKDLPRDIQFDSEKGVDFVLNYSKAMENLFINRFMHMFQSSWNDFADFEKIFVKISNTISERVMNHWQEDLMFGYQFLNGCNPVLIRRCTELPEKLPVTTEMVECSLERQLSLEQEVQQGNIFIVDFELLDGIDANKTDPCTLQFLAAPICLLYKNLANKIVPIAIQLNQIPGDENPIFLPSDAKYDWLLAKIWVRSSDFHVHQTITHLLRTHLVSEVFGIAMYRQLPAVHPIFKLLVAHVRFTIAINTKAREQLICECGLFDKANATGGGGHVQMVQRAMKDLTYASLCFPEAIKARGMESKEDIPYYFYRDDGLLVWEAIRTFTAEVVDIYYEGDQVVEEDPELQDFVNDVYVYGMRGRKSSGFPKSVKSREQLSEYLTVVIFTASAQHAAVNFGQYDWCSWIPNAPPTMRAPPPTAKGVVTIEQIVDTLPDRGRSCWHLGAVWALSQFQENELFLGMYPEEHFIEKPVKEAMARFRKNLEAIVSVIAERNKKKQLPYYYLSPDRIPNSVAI
Description: Lipoxygenase assay, 5-hLO. As to conditions: ratio of IC50 values.

For assay [3], the system named is human lung adenocarcinoma cells over human leukemic lymphoid cells. Description: Soft agar disk diffusion assay. In kind it is cell-based. The note with it: Table S4.
In assay [4] the test system is 12-hLO. As to conditions: read-out: previous IC50 12-hLO; previous work without Triton X100 ref 9; cited from earlier work.

As for `C[C@@H](c1cc2ccccc2s1)N(O)C(N)=O` [Compound 13, zileuton], the 12-hLO activity entry with 12-hLO [1] is “Active ^*, ^**”.

`CC1(C)CCC[C@]2(C)[C@H]3C=C4C=C(O)C(=O)C=C4O[C@@]3(C)CC[C@@H]12` [Compound 1, puupehenone]: the IC50 in the assay on 15-hLO was 800 nM. For the same compound, in assay [2], the 12-hLO/5-hLO selectivity ratio is on record as 32 and the 15-hLO/5-hLO selectivity ratio was found to be 9. For the same compound, the “selectivity against solid tumor cells” value in assay [3] is recorded as “modest selectivity”. In the assay with 12-hLO [4], the IC50 was 8300 nM.

As for `CC1(C)CCC[C@]2(C)C3=CC4=CC(=O)C(=O)C=C4O[C@@]3(C)CC[C@@H]12` [Compound 5, puupehedione], the 12-hLO/5-hLO selectivity ratio in assay [2] amounted to 4.

As for `CC1=C(CC/C(C)=C/CC/C(C)=C/Cc2cc(O)ccc2O)C(C)(C)CCC1` [Compound 9, jaspaquinol], in the assay on 15-hLO, the half-maximal inhibitory concentration (IC50) is 300 nM. Further, in assay [2], the 12-hLO/5-hLO selectivity ratio is reported as above 111 and the 15-hLO/5-hLO selectivity ratio worked out at 42. Also, the IC50 with 12-hLO [4] was 4500 nM.

On to `CC1(C)CCC[C@]2(C)[C@H]3C=C4C(=CC(=O)[C@@H]4O)O[C@@]3(C)CC[C@@H]12` [Compound 3, 20-hydroxyhaterumadienone], for which, in assay [2], the 12-hLO/5-hLO selectivity ratio is listed as ~ 3 and the 15-hLO/5-hLO selectivity ratio is reported as ~ 3.
